The results in this text go back to patent US10604473B2, “Lipids that increase insulin sensitivity and methods of using the same” (Beth Israel Deaconess Medical Center, Inc., priority 2013, dated 2020).

The test system of test [1] is STC-1 cells. In words: GLP-1 secretion from STC-1 enteroendocrine cells (ELISA). The format is cell-based. The method, then:
For the experiments summarized in FIG. 41 STC-1 cells were incubated with vehicle (DMSO), 9-PAHSA, 5-PAHSA or 9-OAHSA at the indicated concentrations or lineolic acid (100 uM) as a positive control. Media was harvested and GLP-1 was measured by ELISA.
For the experiments summarized in FIG. 42, the same protocol as described for FIG. 41 was used, except in this experiment a time course was performed. For both FIG. 41 and FIG. 42, for GLP-1 secretion STC1 cells were washed 3× with serum free culture media followed by stimulation with FAHFAs or vehicle at the indicated concentrations and timepoints. Levels of active GLP-1 were measured by ELISA.
On the technique in general: ELISA stands for enzyme-linked immunosorbent assay.

Test [2] concerns insulin-resistant high-fat fed mice. Briefly: Oral glucose tolerance test in HFD-fed mice. It counts as in vivo, mouse. Particulars: for basal glycemia: 30 minutes after oral administration; for area under the glucose excursion curve / glucose tolerance: OGTT, gavage 30 min prior. The method, then: (§1) Area under the curve (AUC), *p<0.05 compared to vehicle. […] Area above the curve (AAC). *p<0.05 compared to vehicle. […] Area under the curve (AUC). *p<0.05 compared to vehicle. FIG. 53D is a bar graph showing serum insulin levels 5 min post glucose challenge in chow-fed mice gavaged with 5-PAHSA or vehicle (glucose values shown in FIG. 53C). n=12-14 per group, *p<0.05 compared to vehicle by t-test. FIG. 53E is a bar graph showing serum GLP-1 levels 5 min post glucose challenge from chow-fed mice gavaged with 5-PAHSA or vehicle (glucose levels in FIG. 53C). n=12-14 per group, *p<0.05 compared to vehicle by t-test. FIG. 53F are bar graphs showing insulin secretion from primary human islets from two independent donors. Islets were incubated with low (2.5 mM) or high (20 mM) glucose ex vivo in the presence of 5-PAHSA (20 μM) or vehicle control. n=100 islets per condition, *p<0.05 compared to control 2.5 mM glucose, ^#p<0.05 compared to respective treatments at 2.5 mM glucose, ^$p<0.05 compared to control or diluents at 20 mM glucose by t-test. FIG. 53G are bar graphs showing active GLP-1 secretion from STC-1 cells in response to 5-PAHSA (5-P), 9-PAHSA (9P), […] (LA), GW9508 (GW) or vehicle control (DMSO). n=4 per group, *p<0.05 compared to vehicle by t-test. All data are mean±s.e.m. See also FIG. 56.

A further test has as its system aged chow-fed mice. In words: Oral glucose tolerance test in aged chow-fed mice, with serum insulin and GLP-1. It counts as in vivo, mouse. The method, then:
as §1
Studies were conducted to determine whether the PAHSA effects to improve glucose tolerance resulted entirely from the increased insulin sensitivity or also from improved insulin secretion. Therefore, the effects of PAHSAs on glucose-stimulated insulin secretion were tested in vivo in aged (47 weeks old) chow-fed mice. […] Thus, PAHSAs acutely improve insulin sensitivity and glucose tolerance and stimulate GLP-1 and insulin secretion.

The next test relates to Ins1 cells. In words: Insulin release in INS1 cells. The format is cell-based. Conditions: 25 mM glucose in the media. Here is the method: Ins1 cells (FIG. 21) or primary rat islet cells (FIG. 22) were seeded in 24 well-plates [˜10^6 cells/well]. At confluence, cells were incubated with Low Serum [2.5%] and Low Glucose [2.5 mM] media for 12 hours. Next, cells were incubated with KRB buffer for 1 h and stimulated with glucose in the presence of 5-PAHSA (FIG. 21) or 9-PAHSA (FIG. 21) for 45 min in KRB. At the end of the stimulation, 100 μL of media was collected and 10 μL was used to quantitate the amount of insulin released by ELISA. Treatment Conditions for FIGS. 21 and 22 were: • 5-PAHSA or 9-PAHSA [Stock]=20.0 mM [10.76 mg/mL Methanol] • A] 1 uM=0.3 uL/6 mL [Amount of methanol/mL=0.05 uL] • B] 5 uM=1.5 uL/6 mL [Amount of methanol/mL=0.25 uL] • C] 10 uM=3.0 uL/6 mL [Amount of methanol/mL=0.50 uL] • D] 20 uM=6.0 uL/6 mL [Amount of methanol/mL=1.00 uL]
INS-1 cells were seeded in 24 well-plates [˜10^6 cells/well] and at 80% confluence, were cultured overnight in RPMI 1640 medium containing 2.5 mM glucose and 2.5% fetal bovine serum supplemented with 100 IU/ml penicillin and […], 1 mM sodium pyruvate, 2-mercaptoethanol (50 μM) and 10 mM HEPES (pH 7.4). […] At the end of the stimulation supernatant was collected and insulin released into the medium was quantified by ELISA as per manufacturer's protocol. […]

The subject of test [3] is STC-1 cells. In words: Calcium flux (FURA2) in STC-1 cells. The format is cell-based. Particulars: 100 uM, no extracellular Ca2+. Here is the method: For the experiments summarized in FIG. 39 the method is: Cells grown on collagen coated glass slides were preloaded with the calcium indicator, FURA2, for 60 minutes. Buffer containing either FAHFAs or vehicle was incubated with cells for a period of 3 minutes followed by washout with buffer alone. FURA2 fluorescence, an indicator of Calcium mobilization, was monitored continuously before and during the addition of compounds and throughout the washout period. Results were analyzed with metamorph software. Calcium Flux in STC-1 (intestinal enteroendocrine) cells in the absence of extracellular calcium (calcium free buffer). Ligands were injected after 3 minutes and washed out after an additional 3 minutes. The data presented is the average fold change in Fura2 fluorescence for 10 individual STC-1 cells in the same field.
DMSO control had no effect. Top panel is linoleic acid, a positive control. Middle panel 9-PAHSA (100 uM). Bottom panel 5-PAHSA (100 μM). These experiments were done in the absence of extracellular calcium.
On the technique in general: A change in cytosolic calcium serves as a functional read-out for many receptors and channels.

Where [4] appears, read: 5 minutes after glucose administration.

Entries after “also recorded” stand apart in the source; their conditions may differ.

Turning to `CCCCCCCCCCCCCCCC(=O)OC(CCCCCCCCCCCCC)CCCC(=O)O` (stereo not shown) [5-PAHSA], in the test on STC-1 cells [1], the GLP-1 secretion result is on record as “rapidly stimulated GLP-1 secretion; also recorded: induce GLP-1 secretion”. In addition, in test [2], the basal glycemia entry was “lowered basal glycemia”, the “area under the glucose excursion curve” value was “reduced area under the glucose excursion curve” and the glucose tolerance result is “improved glucose tolerance”. Also, in the test with aged chow-fed mice (setting [4]), the GLP-1 levels result was “increased” and the insulin secretion result is listed as “acute enhancement of insulin secretion”. Moreover, the glucose tolerance result in the test on aged chow-fed mice (OGTT, gavage 30 min prior) is listed as “improved glucose tolerance”. In addition, in the test with Ins1 cells, the insulin secretion result is given as “potentiate insulin secretion”. The “Ca2+ flux from intracellular stores” value in the test on STC-1 cells [3] is given as “induce Ca2+ flux from intracellular stores”.

As for `CCCCCCCCCCCCCCCC(=O)OC(CCCCCCCCC)CCCCCCCC(=O)O` (stereo not shown) [9-PAHSA, palmitoyl-9-hydroxystearic acid], in the test with STC-1 cells [1], the GLP-1 secretion result is “rapidly stimulated GLP-1 secretion; also recorded: induce GLP-1 secretion”; the “time course for GLP-1 secretion” value was “very rapid and sustained”. Moreover, in test [2], the basal glycemia result is “lowered basal glycemia”, the “area under the glucose excursion curve” value is listed as “reduced area under the glucose excursion curve” and the glucose tolerance entry is on record as “improved glucose tolerance”. Also, the insulin secretion entry in the test with Ins1 cells is recorded as “potentiate insulin secretion”. Also, the “Ca2+ flux from intracellular stores” value in the test with STC-1 cells [3] is on record as “induce Ca2+ flux from intracellular stores”.
